Assay [1] relates to symmetric dimethyl arginine (SDMA). The experiment in a line: In vivo target inhibition: SDMA ELISA in tumor samples of the Mia PaCa-2 xenograft mouse model. As for the experimental part:
Quantitative reduction levels of symmetric dimethyl arginine (SDMA) in tumor samples harvested from a subcutaneous xenograft mouse model of Mia PaCa-2 were measured by enzyme-linked immunosorbent assay (ELISA).
Reagents: Bradford solution (catalog no. 500-0006) was purchased from Bio-rad (USA). SDMA antibody (catalog no. 13222s) was purchased from Cell signaling Technology (USA). SmD3 antibody (catalog no. ap12451a) was purchased from Abgent (USA). Secondary antibody (catalog no. ab6721) and TMB substrate (catalog no. ab210902) were purchased from Abcam (UK).
Experimental procedure: Tumor tissue transplanted into mice was extracted, cells were lysed, and quantified with Bradford solution. […] of protein per sample was diluted with carbonate-bicarbonate buffer, dispensed into a 96-well plate, and reacted at room temperature for 2 hours. After washing three times with phosphate-buffered saline (PBST) containing 0.05% Tween-20, 200 μL of PBST containing 5% bovine serum albumin (BSA) (BSA-PBST) was added, and reacted at room temperature for 2 hours. After washing three times with PBST, 100 μL of SDMA antibody and SmD3 antibody were diluted in BSA-PBST, each was dispensed, and reacted overnight at 4° C. After washing three times with PBST on next day, 100 μL of secondary antibody diluted in BSA-PBST was added, and reacted at room temperature for 1 hour. After washing three times with PBST, 100 μL of TMB substrate was added and reacted at room temperature for 10-20 minutes, and 100 μL of 1N sulfuric acid solution was added to terminate the reaction. Then, the degree of SDMA inhibition by the compound was calculated by measuring the absorbance at 450 nm.

In assay [2] the test system is CTG-1932, a human non-small cell lung cancer patient-derived cell line. The experiment in a line: Subcutaneous xenograft mouse model of patient-derived CTG-1932 non-small cell lung cancer, tumor growth inhibition. The assay is classed as in vivo. The conditions noted are these: day 9. On the procedure:
For in vivo efficacy studies in a subcutaneous xenograft mouse model of CTG-1932, a human non-small cell lung cancer patient-derived cell line, combination therapy of compound-87 as a PRMT5 inhibitor according to one example of the present invention and with paclitaxel as a chemotherapy agent, was performed at Champions Oncology (USA).
To produce a non-small cell lung cancer xenograft model, CTG-1932 tumor stock was grown and harvested from primary mice and then transplanted subcutaneously into the left flank of immunocompromised female mice as a 5×5×5 mm^3 tumor fragment. When the tumor volume reached approximately 150-300 mm^3, the mice were separated into four groups of 10 each. All group consisted of a solvent-treated group (vehicle group), a compound-87 monotherapy group (50 mg/kg, oral administration, 3 days on/4 days off), a paclitaxel monotherapy group (20 mg/kg, intraperitoneal administration once a week), and combination treatment group of compound-87 (50 mg/kg, oral administration, 3 days on/4 days off) and paclitaxel (20 mg/kg, intraperitoneal administration once a week). tumor volume and body weight were measured twice a week.

The subject of assay [3] is human pancreatic cancer cells Mia PaCa-2. The experiment in a line: Subcutaneous xenograft mouse model of Mia PaCa-2 pancreatic cancer cells, tumor growth inhibition. The assay is classed as in vivo. The conditions noted are these: day 24. As for the experimental part:
For in vivo efficacy study in a subcutaneous xenograft mouse model of human pancreatic cancer cells Mia PaCa-2, co-administration of compound-87 as a PRMT5 inhibitor according to an example of the present invention and Gemcitabine as an anti-metabolite of a chemotherapeutic agent, was performed. To produce a pancreatic cancer xenograft model, 5 million Mia PaCa-2 cells were injected subcutaneously into the right flank of female nude mice, and tumor growth was monitored.
To evaluate the anticancer effect, mice were divided into six groups when the tumor volume reached approximately 150 mm^3 on average. […] The solvent-treated group (vehicle group) or the compound-87 treatment group was administered orally on a 3-day administration/4-day non-administration schedule, and gemcitabine was administered intraperitoneally twice a week for 24 days (Day 0-Day 23). All mice were euthanized on Day 24, 24 hours after the last administration.

These results are taken from patent publication US20260137700A1, “PHARMACEUTICAL COMBINATION OF PRMT5 INHIBITOR AND DNA DAMAGE-INDUCING SUBSTANCE” (SK Biopharmaceuticals Co., Ltd., priority 2022, published 2026).

On to `CN1CCC(Oc2ccc3c(c2)OCCN(C[C@H](O)CN2CCc4ccccc4C2)C3=O)CC1` [Compound-87, 4-[(2R)-3-(3,4-dihydro-1H-isoquinolin-2-yl)-2-hydroxy-propyl]-8-[(1-methyl-4-piperidyl)oxy]-2,3-dihydro-1,4-benzoxazepin-5-one], for which the “SDMA amount in tumor samples compared to the vehicle group” value is given as 37.4% in assay [1] (25 mg/kg Compound-87, 3 days on/4 off for 24 days) and 27.7% in assay [1] (50 mg/kg Compound-87, 3 days on/4 off for 24 days). In addition, in assay [1] (Mus musculus, MIA PaCa-2, 25 mg/kg Compound-87, 3 days on/4 off for 24 days), 25 mg/kg produced 62.6% inhibition. Testing at 50 mg/kg in assay [1] (Mus musculus, MIA PaCa-2, 50 mg/kg Compound-87, 3 days on/4 off for 24 days) gave an inhibition of 72.3%. For the same compound, the “tumor growth inhibition compared to the solvent-treated group” value is 39% in assay [2] (compound-87 50 mg/kg oral single agent, 3 days on/4 off, not significant) and 89% in assay [2] (compound-87 50 mg/kg oral together with paclitaxel 20 mg/kg i.p. once a week). Further, the “tumor growth inhibition rate” value in assay [3] (compound-87 25 mg/kg combined with gemcitabine 60 mg/kg i.p. twice a week) worked out at 67.7%; in assay [3] (compound-87 25 mg/kg monotherapy, oral, 3 days on/4 off) it was 42.6%; in assay [3] (compound-87 50 mg/kg combined with gemcitabine 60 mg/kg i.p. twice a week), 77.0%; in assay [3] (compound-87 50 mg/kg monotherapy, oral, 3 days on/4 off), 56.0%.
